The IC50 is the concentration that gives 50% inhibition.

The first data set in a line: Antioxidant activity assessed as DPPH radical scavenging activity incubated at room temperature for 20 mins by UV-visible spectrophotometry.
Settings: not given
A general note: Loss of DPPH colour is used to gauge radical scavenging.
Turning to `O=C(O)c1ccccc1O` [SALICYLIC ACID], the IC50 is 278 mM.

Staying with this data set, now noted: DPPH radical (cell-free).
With `O=c1c(O)c(-c2ccccc2)oc2ccccc12` [FLAVONOL], the IC50 was found to be 0.387 mM.

For the compound `CC(C)(C)Oc1ccc(-c2oc3cc(O)cc(O)c3c(=O)c2O)cc1`, the IC50 was 0.452 mM. As to `O=C1C[C@@H](c2ccccc2)Oc2cc(O)cc(O)c21` [PINOCEMBRIN], the IC50 is 59.3 mM. The same measure, in the same setting: the result for `O=C(O)c1cc(O)c(O)c(O)c1` [GALLIC ACID] reads 0.011 mM; that for `COc1ccc(O)c(C(C)(C)C)c1.COc1ccc(O)cc1C(C)(C)C` [BUTYLATED HYDROXYANISOLE], 0.019 mM; that for `O=C(O)/C=C/c1ccccc1` [CINNAMIC ACID], 1730 mM. Turning to `Cc1c(C)c2c(c(C)c1O)CCC(C)(C(=O)O)O2` (stereo unspecified) [TROLOX], the IC50 is 0.012 mM.

For `COc1ccc(-c2cc(=O)c3ccccc3o2)cc1` [4'-METHOXYFLAVONE], the half-inhibitory concentration (IC50) was determined as 682 mM. As to `O=c1c(O)c(-c2ccc(Cl)cc2)oc2cc(O)cc(O)c12`, the IC50 stood at 27.8 mM. Same read-out and setting: the result for `CC(C)(C)c1ccc(-c2cc(=O)c3ccc(O)cc3o2)cc1` reads 44.3 mM; that for `COc1ccc(-c2oc3ccccc3c(=O)c2O)cc1`, 0.114 mM; that for `COc1c(-c2ccccc2)oc2c(ccc3occc32)c1=O` [KARANJIN], 4.23 mM. On the same count and under the same terms, the result for `O=c1c(O)c(-c2ccccc2)oc2cc(O)cc(O)c12` [GALANGIN] reads 0.191 mM. Turning to `O=C(/C=C\C=C/c1ccc2c(c1)OCO2)N1CCCCC1`, the IC50 is 90.7 mM. Turning to `O=C(/C=C/c1ccc(Cl)cc1)c1ccccc1O`, the IC50 came to 6.1 mM.

Turning to `O=C(/C=C/C=C/c1ccccc1)c1ccccc1O`, the IC50 worked out at 7.13 mM. With `COc1ccc(/C=C/C(=O)c2ccccc2O)cc1`, the IC50 came out at 190 mM.

For the compound `O=c1cc(-c2ccc(Cl)cc2)oc2ccccc12`, the IC50 was 0.725 mM. On the same count and under the same terms, the result for `O=c1c(O)c(-c2ccc3c(c2)OCO3)oc2ccccc12` reads 0.094 mM; that for `Cc1ccc(-c2cc(=O)c3ccccc3o2)cc1`, 6.34 mM; that for `Cc1ccc(/C=C/C(=O)c2ccccc2O)cc1`, 7.72 mM. Turning to `O=C1O[C@H]([C@@H](O)CO)C(O)=C1O` [ASCORBIC ACID], the IC50 amounted to 0.033 mM. Consider `CN(C)c1ccc(-c2oc3cc(O)cc(O)c3c(=O)c2O)cc1`, for which the IC50 is 0.612 mM.

Consider `O=Cc1ccccc1O` [SALICYLADEHYDE], for which the IC50 came out at 96.6 mM. Turning to `CC(C)(C)c1ccc(/C=C/C(=O)c2ccccc2O)cc1`, the IC50 is 17.1 mM.

Take `COc1c(C(=O)/C=C(\O)c2ccccc2)ccc2occc12` [PONGAMOL]: the half-maximal inhibitory concentration (IC50) was found to be 11.6 mM. For the compound `O=C/C=C/c1ccccc1` [CINNAMALDEHYDE], the concentration for half-maximal inhibition (IC50) came to 372 mM. On the same count and under the same terms, the result for `O=C(/C=C/c1ccco1)c1ccccc1O` reads 4.27 mM. Same read-out and setting: the result for `O=c1c(O)c(/C=C/c2ccccc2)oc2ccccc12` reads 0.039 mM. With `CN(C)c1ccc(-c2oc3ccccc3c(=O)c2O)cc1`, the half-inhibitory concentration (IC50) was determined as 0.022 mM. For `CC(C)(C)c1ccc(-c2oc3cc(O)cc(O)c3c(=O)c2O)cc1`, the IC50 was determined as 0.709 mM.

Consider `CC(C)c1ccc(-c2oc3ccccc3c(=O)c2O)cc1`, for which the half-inhibitory concentration (IC50) turned out to be 11 mM. Consider `CC(C)c1ccc(-c2cc(=O)c3c(O)cc(O)cc3o2)cc1`, for which the IC50 amounted to 29.6 mM. `O=c1c(O)c(-c2ccc(Cl)cc2)oc2ccccc12`: the IC50 came to 0.663 mM.

Turning to `O=C(O)/C=C/c1ccc(O)cc1` [COUMARIC ACID], the IC50 turned out to be 18.4 mM.

Take `O=C(/C=C/C=C/c1ccccc1)c1ccccc1`: the IC50 came to 113 mM. In the case of `CC(=O)c1ccccc1O`, the IC50 was 155 mM. Regarding `O=C(/C=C/c1ccccc1)c1ccccc1O` [2'-HYDROXYCHALCONE], the IC50 is 78 mM. Turning to `O=c1c(O)c(-c2ccco2)oc2ccccc12`, the IC50 was 0.034 mM.

As for `O=Cc1ccco1` [FURFURAL], the IC50 is 215 mM.

Values taken from ChEMBL document CHEMBL3351737, “Design, synthesis and exploring the quantitative structure-activity relationship of some antioxidant flavonoid analogues” (Bioorg Med Chem Lett, 2014).
